Measured values as given in patent US12606528B2, “Methods and materials for inhibiting NF-kB activity” (University of Pittsburgh - Of the Commonwealth System of …, priority 2019, dated 2026).
Where two headings read alike, the source gives them in different places.

Tests used:
NF-κB = NF-κB assay: THP1-NF-κB-LUC cells, LPS-stimulated secreted luciferase; assay type: cell-based; settings: THP1-NF-κB-LUC cells, read-out: IC50 (NF-κB assay)
Procedure, shortened: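 THP1-NF-κB-LUC cells (25k/well) were pretreated with compounds for 2 h, then stimulated with LPS (10 ng/mL) for 18 h. Secreted luciferase was measured and normalized to vehicle, and IC50 was fitted from the concentration series.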

TNF release = assay: TNF assay: TNF release from LPS-stimulated human PBMCs (TNF ELISA); assay type: cell-based; settings: PBMC, read-out: IC50 (TNF assay)
Procedure, shortened: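 Human PBMCs at 10k/well pretreated with compound dilutions 2 h, then stimulated with LPS (10 ng/mL) for 18 h. TNF in supernatants quantified by ELISA; IC50 for inhibition of TNF release fitted from concentration–response.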

[1] = LPS-stimulated human PBMCs, TNF ELISA
[2] = compounds 2 hours before LPS (10 ng/mL) for 18 hours, secreted luciferase
[3] = human PBMCs, compounds 2 hours before LPS (10 ng/ml) for 18 hours, supernatant TNF ELISA

Row | IC50 (NF-κB; LPS-stimulated) [µM] | IC50 (TNF release; [1]) [µM] | IC50 (NF-κB; [2]) [µM] | IC50 (TNF release; [3]) [µM] | SMILES
1 | 1 to 10 | > 10 |  |  | CCc1nnc(-c2ccc3nc(-c4ccc(F)cc4)c(-c4ccc(F)cc4)nc3c2)o1 [BC19246]
2 | 1 to 10 | > 10 |  |  | CCCc1nnc(-c2ccc3nc(-c4ccc(F)cc4)c(-c4ccc(F)cc4)nc3c2)[nH]1 [BC19247]
3 | > 10 | > 10 |  |  | CS(=O)(=O)c1ccc(-c2nc3ccc(-c4ncco4)cc3nc2-c2ccc(F)cc2)s1 [BC19248]
4 | 1 to 10 | > 10 |  |  | Cc1cnc(-c2ccc3nc(-c4ccc(F)cc4)c(-c4cccs4)nc3c2)o1 [BC19249]
5 | < 0.1 | > 10 |  |  | Fc1ccc(-c2nc3ccc(-c4nnco4)cc3nc2-c2ccc(F)cc2)cc1 [BC19250]
6 | < 0.1 | 1 to 10 |  |  | O=C(Nc1ccc2nc(-c3ccc(F)cc3)c(-c3ccc(F)cc3)nc2c1)C1CCNCC1 [BC19251]
7 |  |  | < 0.1 | > 10 | O=c1c(S(=O)(=O)c2ccc(F)c(F)c2)c[nH]c2c(F)ccc(F)c12 [BC19252]
8 |  |  | < 0.1 | > 10 | Cc1ccc(F)c2[nH]cc(S(=O)(=O)c3ccc(F)c(F)c3)c(=O)c12 [BC19253]
9 |  |  | < 0.1 | > 10 | Cc1ccc(Cl)c2c(=O)c(S(=O)(=O)c3ccc(F)c(F)c3)c[nH]c12 [BC19254]
10 |  |  | 1 to 10 | > 10 | COc1ccc(OC)c2c(=O)c(S(=O)(=O)c3ccc(F)c(F)c3)c[nH]c12 [BC19255]
11 |  |  | 1 to 10 | > 10 | O=c1c(S(=O)(=O)c2ccc(F)c(F)c2)c(O)[nH]c2ncccc12 [BC19256]
12 |  |  | > 10 | > 10 | O=c1c(S(=O)(=O)c2ccc(F)c(F)c2)cnc2ccccn12 [BC19257]
13 |  |  | 1 to 10 | > 10 | Cc1ccc(S(=O)(=O)c2c(O)[nH]c3ncccc3c2=O)cc1 [BC19258]
14 |  |  | 1 to 10 | > 10 | O=c1c(S(=O)(=O)c2ccc(Cl)cc2)c(O)[nH]c2ncccc12 [BC19259]
15 | < 0.1 | < 0.1 |  |  | Cc1ccc(S(=O)(=O)c2nc(-c3ccccc3)oc2S(C)(=O)=O)cc1 [BC19260]
16 | < 0.1 | > 10 |  |  | CS(=O)(=O)c1oc(-c2ccccc2)nc1S(=O)(=O)c1cccc(F)c1 [BC19261]
17 | 0.1 to 1 | < 0.1 |  |  | CS(=O)(=O)c1oc(-c2ccccc2)nc1S(=O)(=O)c1ccc(F)c(F)c1 [BC19262]
18 | 0.1 to 1 | 0.1 to 1 |  |  | Cc1ccc(S(=O)(=O)c2nc(-c3ccccc3)oc2S(=O)(=O)C(C)C)cc1 [BC19263]
19 | < 0.1 | 0.1 to 1 |  |  | CCCS(=O)(=O)c1oc(-c2ccccc2)nc1S(=O)(=O)c1ccc(C)cc1 [BC19264]
20 | < 0.1 | 0.1 to 1 |  |  | Cc1ccc(S(=O)(=O)c2nc(-c3ccccc3)oc2S(=O)(=O)CC2CC2)cc1 [BC19265]
21 | < 0.1 | < 0.1 |  |  | COCCS(=O)(=O)c1oc(-c2ccccc2)nc1S(=O)(=O)c1ccc(C)cc1 [BC19266]
22 | < 0.1 | 0.1 to 1 |  |  | Cc1ccc(S(=O)(=O)c2nc(-c3ccccc3)oc2S(=O)(=O)C2CCCCC2)cc1 [BC19267]
23 | 0.1 to 1 | < 0.1 |  |  | CCC[S+]([O-])c1oc(-c2ccccc2)nc1S(=O)(=O)c1cccc(F)c1 (stereo not shown) [BC19268]

Row | IC50 (NF-κB; LPS-stimulated) [µM] | IC50 (TNF release; [1]) [µM] | IC50 (NF-κB; [2]) [µM] | IC50 (TNF release; [3]) [µM] | SMILES
24 | 0.1 to 1 | < 0.1 |  |  | CC(C)S(=O)(=O)c1oc(-c2ccccc2)nc1S(=O)(=O)c1cccc(F)c1 [BC19269]
25 | < 0.1 | < 0.1 |  |  | CC(C)CS(=O)(=O)c1oc(-c2ccccc2)nc1S(=O)(=O)c1cccc(F)c1 [BC19270]
26 | 0.1 to 1 | < 0.1 |  |  | O=S(=O)(CC1CC1)c1oc(-c2ccccc2)nc1S(=O)(=O)c1cccc(F)c1 [BC19271]
27 | < 0.1 | < 0.1 |  |  | COCC[S+]([O-])c1oc(-c2ccccc2)nc1S(=O)(=O)c1cccc(F)c1 (stereo not shown) [BC19272]
28 | 0.1 to 1 | 0.1 to 1 |  |  | CCCS(=O)(=O)c1oc(-c2ccccc2)nc1S(=O)(=O)c1ccc(F)c(F)c1 [BC19273]
29 | < 0.1 | 0.1 to 1 |  |  | CC(C)S(=O)(=O)c1oc(-c2ccccc2)nc1S(=O)(=O)c1ccc(F)c(F)c1 [BC19274]
30 | < 0.1 | < 0.1 |  |  | CC(C)CS(=O)(=O)c1oc(-c2ccccc2)nc1S(=O)(=O)c1ccc(F)c(F)c1 [BC19275]
31 | 0.1 to 1 | < 0.1 |  |  | COCCS(=O)(=O)c1oc(-c2ccccc2)nc1S(=O)(=O)c1ccc(F)c(F)c1 [BC19276]
32 | < 0.1 | 0.1 to 1 |  |  | O=S(=O)(c1ccc(F)c(F)c1)c1nc(-c2ccccc2)oc1S(=O)(=O)C1CCCCC1 [BC19277]
33 | < 0.1 | < 0.1 |  |  | CC(C)CS(=O)(=O)c1oc(-c2ccccc2)nc1S(=O)(=O)c1ccc(Cl)cc1 [BC19278]
34 | 0.1 to 1 | 0.1 to 1 |  |  | CS(=O)(=O)c1sc(-c2ccccc2)nc1S(=O)(=O)c1ccc(F)c(F)c1 [BC19279]
35 |  |  | 1 to 10 | > 10 | COc1ccc(NS(=O)(=O)c2cc3c(cc2Cl)NC(=O)C(C)O3)cc1Cl (stereo not shown) [BC19280]
36 |  |  | 0.1 to 1 | > 10 | CCOc1ccc(NS(=O)(=O)c2cc3c(cc2Cl)NC(=O)C(C)O3)cc1 (stereo not shown) [BC19281]
37 |  |  | 0.1 to 1 | > 10 | CCC1Oc2cc(S(=O)(=O)Nc3cccc(C(C)=O)c3)c(Cl)cc2NC1=O (stereo not shown) [BC19282]
38 |  |  | 0.1 to 1 | > 10 | CCc1cccc(NS(=O)(=O)c2cc3c(cc2Br)NC(=O)C(C)O3)c1 (stereo not shown) [BC19283]
39 |  |  | < 0.1 | > 10 | CC1Oc2cc(S(=O)(=O)Nc3ccc(F)c(F)c3)c(Br)cc2NC1=O (stereo not shown) [BC19284]
40 |  |  | 1 to 10 | > 10 | CC1Oc2cc(S(=O)(=O)Nc3ccc(F)cc3Cl)c(Br)cc2NC1=O (stereo not shown) [BC19285]
41 |  |  | < 0.1 | > 10 | CCC1Oc2cc(S(=O)(=O)Nc3ccc(Cl)cc3)c(Br)cc2NC1=O (stereo not shown) [BC19286]
42 |  |  | 1 to 10 | > 10 | CCC1Oc2cc(S(=O)(=O)NCc3ccccc3)c(Br)cc2NC1=O (stereo not shown) [BC19287]
43 |  |  | < 0.1 | > 10 | CCc1cccc(NS(=O)(=O)c2cc(Br)cc3c2OC(C)C(=O)N3)c1 (stereo not shown) [BC19288]
44 |  |  | < 0.1 | > 10 | CC1Oc2c(cc(Br)cc2S(=O)(=O)Nc2ccc(F)cc2Cl)NC1=O (stereo not shown) [BC19289]
45 |  |  | < 0.1 | > 10 | CCC1Oc2c(cc(Br)cc2S(=O)(=O)Nc2ccc(Cl)cc2)NC1=O (stereo not shown) [BC19290]
46 |  |  | < 0.1 | > 10 | CC1Oc2c(cc(Cl)cc2S(=O)(=O)Nc2ccccc2)NC1=O (stereo not shown) [BC19291]

Row | IC50 (NF-κB; LPS-stimulated) [µM] | IC50 (TNF release; [1]) [µM] | IC50 (NF-κB; [2]) [µM] | IC50 (TNF release; [3]) [µM] | SMILES
47 |  |  | < 0.1 | > 10 | COc1ccc(NS(=O)(=O)c2cc(Cl)cc3c2OC(C)C(=O)N3)cc1Cl (stereo not shown) [BC19292]
48 |  |  | 0.1 to 1 | > 10 | CC(C)NS(=O)(=O)c1cc(Cl)cc2c1OC(C)C(=O)N2 (stereo not shown) [BC19293]
49 |  |  | 1 to 10 | > 10 | CCNS(=O)(=O)c1cc(Cl)cc2c1OC(C)C(=O)N2 (stereo not shown) [BC19294]
50 | < 0.1 | > 10 |  |  | CC(=O)N1CC(=O)Nc2ccc(S(=O)(=O)N3CCCC3)cc21 [BC19295]
51 | 1 to 10 | > 10 |  |  | CC1C(=O)Nc2ccc(S(=O)(=O)N3CCCC3)cc2N1C (stereo not shown) [BC19296]
52 | 1 to 10 | > 10 |  |  | CC1C(=O)Nc2ccc(S(=O)(=O)N3CCCC3)cc2N1C(=O)N1CCOCC1 (stereo not shown) [BC19297]
53 | < 0.1 | > 10 |  |  | CC(C)NC(=O)N1c2cc(S(=O)(=O)N3CCCC3)ccc2NC(=O)C1C (stereo not shown) [BC19298]
54 | 1 to 10 | > 10 |  |  | COCCNC(=O)N1c2cc(S(=O)(=O)N3CCCC3)ccc2NC(=O)C1C (stereo not shown) [BC19299]
55 | 0.1 to 1 | > 10 |  |  | NS(=O)(=O)c1ccc2c(c1)N1CCCC1C(=O)N2 (stereo not shown) [BC19300]
56 | < 0.1 | > 10 |  |  | Cc1nnc(-c2ccc3nc(-c4ccc(F)cc4)c(-c4ccc(F)cc4)nc3c2)n1C [BC19301]
57 | 1 to 10 | > 10 |  |  | Cn1cc(-c2ccc3nc(-c4ccc(F)cc4)c(-c4ccc(F)cc4)nc3c2)cn1 [BC19302]
58 | > 10 | > 10 |  |  | COc1ncc(-c2ccc3nc(-c4ccc(F)cc4)c(-c4ccc(F)cc4)nc3c2)cc1F [BC19303]
59 | 1 to 10 | > 10 |  |  | Cc1ccncc1-c1ccc2nc(-c3ccc(F)cc3)c(-c3ccc(F)cc3)nc2c1 [BC19304]
60 | > 10 | > 10 |  |  | Cn1ncc2c(-c3ccc4nc(-c5ccc(F)cc5)c(-c5ccc(F)cc5)nc4c3)cccc21 [BC19305]
61 | 0.1 to 1 | > 10 |  |  | Fc1ccc(-c2nc3ccc(-c4nncn4CCN4CCOCC4)cc3nc2-c2ccc(F)cc2)cc1 [BC19306]
62 | 0.1 to 1 | < 0.1 |  |  | Cc1ccc(S(=O)(=O)c2nc3cc(C(=O)N4CCN(C)CC4)ccc3nc2-c2ccc(F)cc2)cc1F [BC19307]
63 | 0.1 to 1 | < 0.1 |  |  | Cc1ccc(S(=O)(=O)c2nc3cc(C(=O)N4CCN(C)CC4)ccc3nc2-c2ccc(F)cc2)cc1 [BC19308]
64 | 0.1 to 1 | 1 to 10 |  |  | CN1CCC(C(=O)Nc2ccc3nc(-c4ccc(F)cc4)c(-c4ccc(F)cc4)nc3c2)CC1 [BC19309]
65 | < 0.1 | > 10 |  |  | CC(=O)N1CCC(C(=O)Nc2ccc3nc(-c4ccc(F)cc4)c(-c4ccc(F)cc4)nc3c2)CC1 [BC19310]
66 | < 0.1 | > 10 |  |  | CNC(=O)N1CCC(C(=O)Nc2ccc3nc(-c4ccc(F)cc4)c(-c4ccc(F)cc4)nc3c2)CC1 [BC19311]
67 | < 0.1 | 1 to 10 |  |  | CS(=O)(=O)N1CCC(C(=O)Nc2ccc3nc(-c4ccc(F)cc4)c(-c4ccc(F)cc4)nc3c2)CC1 [BC19312]
68 | 0.1 to 1 | 1 to 10 |  |  | C=CC(=O)Nc1ccc2nc(-c3ccc(F)cc3)c(-c3ccc(F)cc3)nc2c1 [BC19313]
